23 compounds from ChEMBL document CHEMBL3297657, “Synthesis and antitumor activities of novel α-aminophosphonate derivatives containing an alizarin moiety” (Eur J Med Chem, 2014) can be followed below.

SMILES strings stand for the structures.

One test concerns KB. Put plainly: Cytotoxicity against human KB cells after 48 hrs by MTT assay. In kind it is functional, cell-based.
The next test concerns HUVEC. Nature of the test: Cytotoxicity against HUVEC after 48 hrs by MTT assay. In kind it is cell-based. The settings on record: Homo sapiens.
In another test the test system is HCT-116. Put plainly: cells. The settings on record: Homo sapiens, HCT-116, 48 h.
Another test deals with NCI-H460. Nature of the test: Cytotoxicity against human NCI-H460 cells after 48 hrs by MTT assay. In kind it is functional, cell-based. The settings on record: NCI-H460, 48 h.
In another test the test system is CNE. Put plainly: Cytotoxicity against human CNE cells after 48 hrs by MTT assay. In kind it is functional, cell-based.
A further test has as its system HepG2. Nature of the test: cells. The settings on record: Homo sapiens, HepG2, 48 h.
The next test has as its system MGC-803. Nature of the test: Cytotoxicity against human MGC803 cells after 48 hrs by MTT assay. The class given is functional, cell-based. Particulars: MGC-803, 48 h.
In the next test the test system is HeLa. Nature of the test: cells. The settings on record: Homo sapiens, 48 h.
The test system of the next test is A549. Put plainly: cells. The settings on record: Homo sapiens, A549, 48 h.

Description for A549: Cytotoxicity against human A549 cells after 48 hrs by MTT assay
Description for HCT-116: Cytotoxicity against human HCT116 cells after 48 hrs by MTT assay
Description for HeLa: Cytotoxicity against human HeLa cells after 48 hrs by MTT assay
Description for HepG2: Cytotoxicity against human HepG2 cells after 48 hrs by MTT assay

In the case of `O=c1[nH]cc(F)c(=O)[nH]1` [FLUOROURACIL], the IC50 stood at 1.23 µM with KB; 24.1 µM in the test on HUVEC; 10.1 µM in the test on HCT-116; 45.1 µM in the test on NCI-H460; 45.1 µM in the test with CNE; 38.3 µM in the test with HepG2. The IC50 in the test with MGC-803 stood at 46.9 µM; with HeLa, 23.3 µM.

Consider `CCOP(=O)(OCC)C(NC(=O)C(C)Oc1ccc2c(c1O)C(=O)c1ccccc1C2=O)c1cccc(Cl)c1` (stereo not given), for which the IC50 with KB was 0.22 µM; with HUVEC, 70.8 µM; with HCT-116, 36.3 µM; in the test with NCI-H460, 9.1 µM; with CNE, over 50 µM; in the test on HepG2, 70.8 µM. Besides, the concentration for half-maximal inhibition (IC50) was found to be 29 µM in the test with MGC-803, 18.7 µM in the test on A549 and 12.9 µM in the test on HeLa.

Regarding `O=C1c2ccccc2C(=O)c2c1ccc(O)c2O` [ATHRAQUINONES A], the 50% inhibitory concentration (IC50) in the test with KB was 15.7 µM; in the test with HUVEC, over 50 µM; in the test on HCT-116, over 50 µM; in the test on NCI-H460, over 50 µM; with CNE, over 100 µM; in the test on HepG2 it was over 50 µM. Also, the half-maximal inhibitory concentration (IC50) was 39.4 µM in the test on MGC-803, over 50 µM with A549 and over 100 µM in the test with HeLa.

Consider `CCOP(=O)(OCC)C(NC(=O)COc1ccc2c(c1O)C(=O)c1ccccc1C2=O)c1ccc(OC)cc1` (stereo not given), for which the IC50 in the test on KB was 7.32 µM; with HUVEC, over 50 µM; in the test with HCT-116 it was 44.9 µM; with NCI-H460, 20 µM; in the test with HepG2 it was over 50 µM; with MGC-803, 36.1 µM. Further, the figures for the IC50 in the test with A549 and with HeLa were 42.2 µM and over 50 µM, respectively.

Turning to `CCOP(=O)(OCC)C(NC(=O)COc1ccc2c(c1O)C(=O)c1ccccc1C2=O)c1ccccc1Cl` (stereo not given), the IC50 was 1.55 µM with KB; over 50 µM with HUVEC; 16.3 µM in the test with HCT-116; 21.2 µM with NCI-H460; over 50 µM in the test with HepG2; 39.2 µM in the test on MGC-803. Moreover, the 50% inhibitory concentration (IC50) in the test with A549 is 38 µM; in the test on HeLa, over 50 µM.

In the case of `CCOP(=O)(OCC)C(NC(=O)C(C)Oc1ccc2c(c1O)C(=O)c1ccccc1C2=O)c1cccc(OC)c1` (stereo not given), the IC50 in the test on KB was 5.78 µM; in the test with HUVEC, over 50 µM; with HCT-116, 17 µM; in the test on NCI-H460, 14.9 µM; in the test with CNE it was over 50 µM; in the test with HepG2 it was over 50 µM. Further, the figures for the half-inhibitory concentration (IC50) with MGC-803, with A549 and in the test on HeLa were 27.6 µM, 36 µM and over 50 µM, respectively.

As to `CCOP(=O)(OCC)C(NC(=O)C(C)Oc1ccc2c(c1O)C(=O)c1ccccc1C2=O)c1ccc(OC)cc1` (stereo not given), the IC50 is 1 µM with KB; over 50 µM with HUVEC; 13.7 µM with HCT-116; 14.3 µM with NCI-H460; over 50 µM in the test with CNE; over 50 µM with HepG2. Also, the IC50 stood at 22.5 µM in the test on MGC-803, 33.7 µM in the test with A549 and 14.7 µM in the test with HeLa.

On to `CCOP(=O)(OCC)C(NC(=O)C(C)Oc1ccc2c(c1O)C(=O)c1ccccc1C2=O)c1ccc2ccccc2c1` (stereo not given), for which the IC50 came to 1.21 µM with KB; 38.9 µM in the test with HUVEC; 23 µM in the test with HCT-116; 14.1 µM with NCI-H460; 49.4 µM with CNE; 38.9 µM in the test with HepG2. The IC50 was determined as 5.6 µM with MGC-803, 25.2 µM in the test on A549 and 23.6 µM in the test on HeLa.

On to `CCOP(=O)(OCC)C(NC(=O)COc1ccc2c(c1O)C(=O)c1ccccc1C2=O)c1cccc(OC)c1` (stereo not given), for which the IC50 in the test with KB was 15.5 µM; in the test on HUVEC it was over 50 µM; in the test with HCT-116, 49.8 µM; in the test with NCI-H460 it was 27.9 µM; with HepG2, over 50 µM; in the test on MGC-803, 38 µM. Also, the concentration for half-maximal inhibition (IC50) was 44.1 µM with A549 and over 50 µM in the test with HeLa.

`CCOP(=O)(OCC)C(NC(=O)C(C)Oc1ccc2c(c1O)C(=O)c1ccccc1C2=O)c1ccc(Cl)cc1` (stereo not given): the 50% inhibitory concentration (IC50) in the test with KB worked out at 0.2 µM; in the test on HUVEC, 31.8 µM; in the test with HCT-116 it was 15.6 µM; in the test on NCI-H460, 5.11 µM; in the test with CNE it was 48.7 µM; in the test on HepG2, 31.8 µM. For the same compound, the concentration for half-maximal inhibition (IC50) in the test on MGC-803 was 25.1 µM; in the test with A549, 10.7 µM; in the test with HeLa, 12.7 µM.

For `CCOP(=O)(OCC)C(NC(=O)C(C)Oc1ccc2c(c1O)C(=O)c1ccccc1C2=O)c1cccc(F)c1` (stereo not given), the IC50 with KB is 9.12 µM; in the test with HUVEC, over 50 µM; in the test on HCT-116 it was 47.1 µM; in the test with NCI-H460, 25.9 µM; with CNE, over 50 µM; in the test with HepG2, over 50 µM. Moreover, the half-inhibitory concentration (IC50) in the test on MGC-803 was 28.9 µM; with A549 it was 35.1 µM; with HeLa, over 50 µM.

For the compound `CCOP(=O)(OCC)C(NC(=O)C(C)Oc1ccc2c(c1O)C(=O)c1ccccc1C2=O)c1ccc(F)cc1` (stereo not given), the 50% inhibitory concentration (IC50) is 0.87 µM in the test on KB; 25.3 µM in the test with HUVEC; 17.9 µM in the test on HCT-116; 8.92 µM with NCI-H460; over 50 µM with CNE; 25.3 µM in the test on HepG2. Further, the results for the IC50 in the test with MGC-803, in the test on A549 and in the test on HeLa were 22.9 µM, 19.4 µM and 34.1 µM, respectively.

As for `CCOP(=O)(OCC)C(NC(=O)COc1ccc2c(c1O)C(=O)c1ccccc1C2=O)c1ccccc1Br` (stereo not given), the IC50 is 6.64 µM in the test on KB; over 50 µM in the test on HUVEC; 17.2 µM with HCT-116; 12 µM in the test on NCI-H460; over 50 µM with HepG2; 18.7 µM in the test with MGC-803. For the same compound, the IC50 in the test with A549 was 35.8 µM; in the test on HeLa, over 50 µM.

In the case of `CCOP(=O)(OCC)C(NC(=O)COc1ccc2c(c1O)C(=O)c1ccccc1C2=O)c1ccccc1OC` (stereo not given), the IC50 was 1.24 µM in the test on KB; over 50 µM in the test on HUVEC; 30.2 µM in the test with HCT-116; 20.8 µM with NCI-H460; over 50 µM with HepG2; 29.2 µM in the test on MGC-803. The IC50 was 39 µM in the test with A549 and over 50 µM in the test on HeLa.

Take `CCOP(=O)(OCC)C(NC(=O)C(C)Oc1ccc2c(c1O)C(=O)c1ccccc1C2=O)c1cccc(Br)c1` (stereo not given): the IC50 in the test with KB is 2.29 µM; in the test with HUVEC, 23.6 µM; in the test on HCT-116, 15.7 µM; in the test with NCI-H460, 10.7 µM; with CNE it was over 50 µM; with HepG2, 23.6 µM. For the same compound, the half-inhibitory concentration (IC50) is 27.5 µM with MGC-803, 32.8 µM in the test with A549 and 11 µM with HeLa.

Take `CCOP(=O)(OCC)C(NC(=O)COc1ccc2c(c1O)C(=O)c1ccccc1C2=O)c1ccccc1F` (stereo not given): the IC50 in the test on KB was 2.6 µM; in the test on HUVEC, over 50 µM; with HCT-116, 14.7 µM; in the test with NCI-H460, 12.9 µM; with HepG2, over 50 µM; in the test on MGC-803, 27.1 µM. For the same compound, the figures for the IC50 in the test with A549 and with HeLa were 37.8 µM and over 50 µM, respectively.

As for `CCOP(=O)(OCC)C(NC(=O)COc1ccc2c(c1O)C(=O)c1ccccc1C2=O)c1ccc(Br)cc1` (stereo not given), the IC50 with KB was 3.26 µM; with HUVEC, over 50 µM; in the test with HCT-116, 45.8 µM; in the test with NCI-H460, 46.2 µM; in the test on HepG2, over 50 µM; in the test on MGC-803 it was 35.2 µM. The results for the half-inhibitory concentration (IC50) with A549 and in the test on HeLa were 45.1 µM and over 50 µM, respectively.

As to `CCOP(=O)(OCC)C(NC(=O)COc1ccc2c(c1O)C(=O)c1ccccc1C2=O)c1ccc(F)cc1` (stereo not given), the IC50 is 6.45 µM in the test with KB; over 50 µM with HUVEC; 36.3 µM with HCT-116; 47.9 µM in the test with NCI-H460; over 50 µM in the test on HepG2; 30.9 µM with MGC-803. For the same compound, the figures for the half-inhibitory concentration (IC50) with A549 and in the test with HeLa were 49 µM and over 50 µM, respectively.

On to `CCOP(=O)(OCC)C(NC(=O)COc1ccc2c(c1O)C(=O)c1ccccc1C2=O)c1ccccc1` (stereo not given), for which the IC50 in the test on KB is 6.7 µM; with HUVEC it was over 50 µM; in the test with HCT-116, 17.4 µM; in the test on NCI-H460, 11.9 µM; with HepG2 it was 41.4 µM; with MGC-803, 13 µM. Besides, the IC50 in the test with A549 turned out to be 12.1 µM; in the test with HeLa, 18.5 µM.

As for `CCOP(=O)(OCC)C(NC(=O)COc1ccc2c(c1O)C(=O)c1ccccc1C2=O)c1ccc(C)cc1` (stereo not given), the IC50 in the test with KB was 9.37 µM; in the test on HUVEC it was over 50 µM; in the test with HCT-116, 13.7 µM; in the test with NCI-H460, 12.2 µM; in the test with HepG2, over 50 µM; in the test with MGC-803 it was 12.6 µM. Moreover, the IC50 in the test with A549 is 33.8 µM; in the test with HeLa, over 50 µM.

With `CCOP(=O)(OCC)C(NC(=O)COc1ccc2c(c1O)C(=O)c1ccccc1C2=O)c1cccc(C)c1` (stereo not given), the IC50 in the test with KB was 12 µM; with HUVEC it was over 50 µM; in the test on HCT-116, 16 µM; in the test with NCI-H460 it was 33.9 µM; in the test with HepG2 it was 28.5 µM; in the test on MGC-803, 37.9 µM. Further, the IC50 with A549 amounted to 47 µM; in the test with HeLa it was 10.6 µM.

For the compound `CCOP(=O)(OCC)C(NC(=O)C(C)Oc1ccc2c(c1O)C(=O)c1ccccc1C2=O)c1ccc(Br)cc1` (stereo not given), the IC50 with KB worked out at 0.26 µM; in the test with HUVEC, 22.2 µM; in the test on HCT-116, 12.4 µM; with NCI-H460 it was 7.83 µM; with CNE, 22.2 µM; with HepG2 it was 22.2 µM. Further, the IC50 was 18.5 µM with MGC-803, 30.3 µM in the test on A549 and 10.9 µM in the test on HeLa.

As for `CCOP(=O)(OCC)C(NC(=O)C(C)Oc1ccc2c(c1O)C(=O)c1ccccc1C2=O)c1ccc(C)cc1` (stereo not given), the half-maximal inhibitory concentration (IC50) was 0.99 µM with KB; over 50 µM in the test with HUVEC; 37 µM in the test with HCT-116; 28.9 µM in the test with NCI-H460; over 50 µM with CNE; over 50 µM with HepG2. The IC50 with MGC-803 was 27.9 µM; in the test on A549, 38 µM; in the test with HeLa, over 50 µM.
